{
  "source": "PubChem BioAssay AID212",
  "about": "(DTP/NCI, 2004)",
  "system": "BDF1 mice, colon carcinoma 38 sc, T/C %",
  "experiment": "NCI In Vivo Anticancer Drug Screen. Data for tumor model Colon Carcinoma 38 (subcutaneous) in B6D2F1 (BDF1) mice",
  "method": "The antitumor activity of compounds was measured in mice bearing transplantable tumors. Survival or tumor size were measured and the results are expressed as the measurement made in the treated group (T) divided by the measurement made in the vehicle treated control group (C). The tumor model used in this assay is Colon Carcinoma 38 (subcutaneous) in B6D2F1 (BDF1) mice",
  "key": {"[1]": {"conditions": "endpoint: median tumor weight (est.), dose: 12.5 mg/kg/injection, schedule: Q07DX002 (ip), vehicle: saline, higher = larger tumour"}, "[2]": {"conditions": "endpoint: median tumor weight (est.), dose: 12.5 mg/kg/injection, schedule: Q07DX002 (ip), vehicle: saline with Tween-80, higher = larger tumour"}, "[3]": {"conditions": "endpoint: median tumor weight (est.), dose: 25.0 mg/kg/injection, schedule: Q07DX002 (ip), vehicle: saline with Tween-80, higher = larger tumour"}},
  "note": "Values joined by “and” are separate entries in the source; they are usually repeats but may differ in a detail not shown here. Identical values can stand only once. Inconclusive results are not listed.",
  "data": [
    {"smiles": "CC1(C)OC(=O)N(CO)C1=O", "values": [
      {"measurement": "T/C", "setting": "[1]", "result": "162 % of control"},
      {"measurement": "T/C", "setting": "endpoint: median tumor weight (est.), dose: 25.0 mg/kg/injection, schedule: Q07DX002 (ip), vehicle: saline, higher = larger tumour", "result": "94 % of control"},
      {"measurement": "T/C", "setting": "endpoint: median tumor weight (est.), dose: 50.0 mg/kg/injection, schedule: Q07DX002 (ip), vehicle: saline, higher = larger tumour", "result": "120 % of control and 123 % of control"},
      {"measurement": "T/C", "setting": "endpoint: median tumor weight (est.), dose: 400.0 mg/kg/injection, schedule: Q07DX002 (ip), vehicle: saline, higher = larger tumour", "result": "257 % of control"}
    ]},
    {"smiles": "CC1=C(O)C(=O)[C@@H]2O[C@@H]2C1=O", "values": [
      {"measurement": "T/C", "setting": "endpoint: median tumor weight (est.), dose: 3.12 mg/kg/injection, schedule: Q07DX002 (ip), vehicle: saline, higher = larger tumour", "result": "90 % of control"},
      {"measurement": "T/C", "setting": "endpoint: median tumor weight (est.), dose: 6.25 mg/kg/injection, schedule: Q07DX002 (ip), vehicle: saline, higher = larger tumour", "result": "106 % of control"},
      {"measurement": "T/C", "setting": "[1]", "result": "71 % of control"}
    ]},
    {"smiles": "COc1cc2c(c(OC)c1OC)-c1c(cc3c(c1OC)OCO3)CC(C)C(C)(O)C2OC(=O)c1ccccc1", "note": "(configuration not stated)", "values": [
      {"measurement": "T/C", "setting": "endpoint: median tumor weight (est.), dose: 50.0 mg/kg/injection, schedule: Q07DX002 (ip), vehicle: saline + Tween-80 + alcohol, higher = larger tumour", "result": "165 % of control"},
      {"measurement": "T/C", "setting": "endpoint: median tumor weight (est.), dose: 100.0 mg/kg/injection, schedule: Q07DX002 (ip), vehicle: saline + Tween-80 + alcohol, higher = larger tumour", "result": "103 % of control"},
      {"measurement": "T/C", "setting": "endpoint: median tumor weight (est.), dose: 200.0 mg/kg/injection, schedule: Q07DX002 (ip), vehicle: saline + Tween-80 + alcohol, higher = larger tumour", "result": "106 % of control"},
      {"measurement": "T/C", "setting": "endpoint: median tumor weight (est.), dose: 400.0 mg/kg/injection, schedule: Q07DX002 (ip), vehicle: saline + Tween-80 + alcohol, higher = larger tumour", "result": "211 % of control"},
      {"measurement": "T/C", "setting": "endpoint: median tumor weight (est.), dose: 800.0 mg/kg/injection, schedule: Q07DX002 (ip), vehicle: saline + Tween-80 + alcohol, higher = larger tumour", "result": "111 % of control"}
    ]},
    {"smiles": "CC[C@@]1(O)C[C@H](OC2CC(N(C)C)C(OC3CC(O)C(OC4CCC(=O)C(C)O4)C(C)O3)C(C)O2)c2c(cc3c(c2O)C(=O)c2c(O)cccc2C3=O)[C@H]1C(=O)OC", "note": "(some centres not stated)", "values": [
      {"measurement": "T/C", "setting": "endpoint: median survival time, dose: 5.3 mg/kg/injection, schedule: Q07DX002 (iv), vehicle: water, higher = longer survival", "result": "114 % of control"},
      {"measurement": "T/C", "setting": "endpoint: median survival time, dose: 8.3 mg/kg/injection, schedule: Q07DX002 (iv), vehicle: water, higher = longer survival", "result": "105 % of control"},
      {"measurement": "T/C", "setting": "endpoint: median survival time, dose: 20.0 mg/kg/injection, schedule: Q07DX002 (iv), vehicle: water, higher = longer survival", "result": "115 % of control"},
      {"measurement": "T/C", "setting": "endpoint: median tumor weight (est.), dose: 0.75 mg/kg/injection, schedule: Q07DX002 (ip), vehicle: water, higher = larger tumour", "result": "67 % of control"},
      {"measurement": "T/C", "setting": "endpoint: median tumor weight (est.), dose: 0.75 mg/kg/injection, schedule: Q07DX003 (ip), vehicle: water, higher = larger tumour", "result": "98 % of control"},
      {"measurement": "T/C", "setting": "endpoint: median tumor weight (est.), dose: 1.5 mg/kg/injection, schedule: Q07DX003 (ip), vehicle: water, higher = larger tumour", "result": "123 % of control"},
      {"measurement": "T/C", "setting": "endpoint: median tumor weight (est.), dose: 3.0 mg/kg/injection, schedule: Q07DX003 (ip), vehicle: water, higher = larger tumour", "result": "103 % of control"},
      {"measurement": "T/C", "setting": "endpoint: median tumor weight (est.), dose: 6.0 mg/kg/injection, schedule: Q07DX003 (ip), vehicle: water, higher = larger tumour", "result": "75 % of control"},
      {"measurement": "T/C", "setting": "endpoint: median tumor weight (est.), dose: 12.0 mg/kg/injection, schedule: Q07DX003 (ip), vehicle: water, higher = larger tumour", "result": "40 % of control"}
    ]},
    {"smiles": "ClC1=C(Cl)C(Cl)=C(Cl)C1=Cc1ccccc1", "values": [
      {"measurement": "T/C", "setting": "endpoint: median tumor weight (est.), dose: 0.78 mg/kg/injection, schedule: Q07DX002 (ip), vehicle: saline with Tween-80, higher = larger tumour", "result": "119 % of control"},
      {"measurement": "T/C", "setting": "endpoint: median tumor weight (est.), dose: 1.56 mg/kg/injection, schedule: Q07DX002 (ip), vehicle: saline with Tween-80, higher = larger tumour", "result": "95 % of control"},
      {"measurement": "T/C", "setting": "endpoint: median tumor weight (est.), dose: 6.25 mg/kg/injection, schedule: Q07DX002 (ip), vehicle: saline with Tween-80, higher = larger tumour", "result": "114 % of control"},
      {"measurement": "T/C", "setting": "[2]", "result": "114 % of control"},
      {"measurement": "T/C", "setting": "[3]", "result": "58 % of control"}
    ]},
    {"smiles": "O=C(Nc1ccc(N=C=S)cc1Cl)c1cc(Cl)cc(Cl)c1O", "values": [
      {"measurement": "T/C", "setting": "endpoint: median tumor weight (est.), dose: 12.5 mg/kg/injection, schedule: Q07DX002 (ip), vehicle: Klucel (hydroxypropylcellulose) (HPC), higher = larger tumour", "result": "64 % of control and 65 % of control"},
      {"measurement": "T/C", "setting": "endpoint: median tumor weight (est.), dose: 50.0 mg/kg/injection, schedule: Q07DX002 (ip), vehicle: Klucel (hydroxypropylcellulose) (HPC), higher = larger tumour", "result": "80 % of control and 87 % of control"},
      {"measurement": "T/C", "setting": "endpoint: median tumor weight (est.), dose: 100.0 mg/kg/injection, schedule: Q07DX002 (ip), vehicle: Klucel (hydroxypropylcellulose) (HPC), higher = larger tumour", "result": "79 % of control"}
    ]},
    {"smiles": "O=[N+]([O-])c1nccn1CC(O)CO", "note": "(configuration not stated)", "values": [
      {"measurement": "T/C", "setting": "endpoint: median tumor weight (est.), dose: 100.0 mg/kg/injection, schedule: Q07DX002 (ip), vehicle: saline, higher = larger tumour", "result": "120 % of control"},
      {"measurement": "T/C", "setting": "endpoint: median tumor weight (est.), dose: 800.0 mg/kg/injection, schedule: Q07DX002 (ip), vehicle: saline, higher = larger tumour", "result": "105 % of control"}
    ]},
    {"smiles": "Nc1ccc(C(=O)Nc2ccccc2N)cc1", "values": [
      {"measurement": "T/C", "setting": "[2]", "result": "121 % of control"},
      {"measurement": "T/C", "setting": "endpoint: median tumor weight (est.), dose: 25.0 mg/kg/injection, schedule: Q01DX007 (ip), vehicle: saline with Tween-80, higher = larger tumour", "result": "160 % of control"},
      {"measurement": "T/C", "setting": "endpoint: median tumor weight (est.), dose: 25.0 mg/kg/injection, schedule: Q01DX007 (oral), vehicle: saline with Tween-80, higher = larger tumour", "result": "58 % of control"},
      {"measurement": "T/C", "setting": "[3]", "result": "67 % of control"},
      {"measurement": "T/C", "setting": "endpoint: median tumor weight (est.), dose: 50.0 mg/kg/injection, schedule: Q01DX007 (ip), vehicle: saline with Tween-80, higher = larger tumour", "result": "71 % of control"},
      {"measurement": "T/C", "setting": "endpoint: median tumor weight (est.), dose: 50.0 mg/kg/injection, schedule: Q01DX007 (oral), vehicle: saline with Tween-80, higher = larger tumour", "result": "78 % of control"},
      {"measurement": "T/C", "setting": "endpoint: median tumor weight (est.), dose: 100.0 mg/kg/injection, schedule: Q01DX007 (ip), vehicle: saline with Tween-80, higher = larger tumour", "result": "123 % of control"},
      {"measurement": "T/C", "setting": "endpoint: median tumor weight (est.), dose: 100.0 mg/kg/injection, schedule: Q07DX002 (ip), vehicle: saline with Tween-80, higher = larger tumour", "result": "121 % of control"},
      {"measurement": "T/C", "setting": "endpoint: median tumor weight (est.), dose: 200.0 mg/kg/injection, schedule: Q01DX007 (oral), vehicle: saline with Tween-80, higher = larger tumour", "result": "76 % of control"},
      {"measurement": "T/C", "setting": "endpoint: median tumor weight (est.), dose: 200.0 mg/kg/injection, schedule: Q07DX002 (ip), vehicle: saline with Tween-80, higher = larger tumour", "result": "84 % of control"},
      {"measurement": "T/C", "setting": "endpoint: median tumor weight (est.), dose: 400.0 mg/kg/injection, schedule: Q01DX007 (oral), vehicle: saline with Tween-80, higher = larger tumour", "result": "105 % of control"}
    ]}
  ]
}
